19 compounds from patent US8921373B2, “Compounds having TRPV1 antagonistic activity and uses thereof” (Shionogi & Co., Ltd., priority 2010, dated 2014) can be followed below.

SMILES strings stand for the structures. Like-named read-outs stand apart in the source and are kept apart here.

The experiment addresses human recombinant TRPV1 (Homo sapiens (Human), UniProt Q8NER1). Put plainly: TRPV1 pH-Based Assay (Protocol 2, Ca2+ response in TRPV1/CHO cells, Fura-2). It counts as cell-based. The following applies: TRPV1/CHO cells, pH 5.0-5.1. The protocol:
For Protocol 2, a Chinese Hamster Ovary cell line (CHO) that has been engineered to constitutively express human recombinant TRPV1 was used (TRPV1/CHO cells). The TRPV1/CHO cell line was generated as described below.
TRPV1/CHO cells were seeded in the 96-well clear-bottom black-wall plate (Nunc) at densities of 1-2×10^4 cells/well and grown in 100 μL of culture medium (alpha-MEM supplemented with 10% FBS, 20 mM HEPES, 1 mg/mL geneticin and 1% antibiotic-antimycotic mixed stock solution) for 1-2 days before the experiment.
(2) The 96-well plate was incubated at 37° C. for 45 min.
(3) The loading buffer was removed from each well. […] The wells were then refilled with 80 μL of measuring buffer.
(4) After an incubation at 4° C. for 15 min, the 96-well plate was transferred to FDSS-3000 (Hamamatsu Photonics, Japan).
(5) The Fura-2 fluorescent intensity was monitored at a wavelength of 340 nm and at 380 nm, respectively, at a rate of 0.5 Hz for a total of 240 seconds. After 16 time points (32 sec) of baseline detection, 20 μL of agonist solution was added to each well. The final volume was 100 μL/well.
(6) Fluorescence intensity ratio refers to the fluorescence intensity at 340 nm over the fluorescence intensity at 380 nm at a particular time point. The baseline was set as the average of the fluorescent intensity ratios for the first 16 time points before the addition of agonist solution. The maximum response was the highest fluorescent intensity ratio during the 60 time points following addition of agonist solution.
(7) Maximal signal ratios from each well were calculated as output data using the FDSS-3000 analysis program. Data were analyzed using Excel (Microsoft) and XLfit (idbs) software.
Two different agonist solutions with different H2SO4 concentrations were used for the pH assay (FIG. 3A). For one half of a 96-well plate one agonist solution was used, for the other half the other agonist solution. The agonist solutions were obtained by diluting sulfuric acid (H2SO4, 1M) with measuring buffer. The concentrations for the two agonist solutions were determined as described above in Section 2 of Protocol 2.
The sulfuric acid concentrations between the two agonist solutions differed by 0.5 mM. […] After 1:4 dilution of the agonist solutions, the final sulfuric acid concentration was 3.2 mM and 3.3 mM, respectively. The resulting pH value for the pH assay was 5.0 to 5.1.
Test compounds were dissolved in DMSO to yield 1 mM stock solutions. […] The thereby-obtained solutions were further diluted in measuring buffer (1:100) as 10× stock serial dilutions with a DMSO concentration of 1%. 10 μL of a 10× stock was added into each well at step 3.3.(4) of Protocol 2.
Steps (1) and (2) of this Assay were the same as steps 2.2.(1) and 2.2.(2) of Protocol 2, respectively.
(3) The cells were washed twice with 150 μL of measuring buffer (mentioned in 2.2.(3) of Protocol 2, no probenecid). The wells were subsequently refilled with 70 μL of measuring buffer.
(4) Either 10 μl of measuring buffer or 10 μL of 10× stock serial dilution of test compound (described in 3.2. above) were applied to each well. Usually, only one test compound was tested per 96-well plate. The number of replicates per 96-well plate for a particular antagonist at a particular concentration was 7×2 since two different sulfuric acid concentrations were used per 96-well plate (N=7×2) (FIG. 3).
Step (5) was the same as 2.2.(4) above.
(6) Fura-2 fluorescent intensity was monitored as described in 2.2.(5) above. After 16 time points of baseline detection, 20 μL of agonist solution (measuring buffer titrated with H2SO4 to yield pH 5.0-5.1 when mixed 1:4 with the measuring buffer containing test compound) was added to each well (final volume 100 μL/well).
Steps (7) and (8) were as described in 2.2.(6) and 2.2.(7) above, respectively.
(1) The pH values of the buffer in the wells of A1→H1 and A7→H7 (longitudinally; FIG. 3) were measured one by one using a portable pH meter.

[1] abbreviates: compounds of the invention, read-out: TRPV1 IC50 Potency (pH-Based Assay), Compound IC50.
Setting [2] is: read-out: IC50 value by the pH-Based Assay.

human recombinant TRPV1, sequence (Q8NER1 whole entry): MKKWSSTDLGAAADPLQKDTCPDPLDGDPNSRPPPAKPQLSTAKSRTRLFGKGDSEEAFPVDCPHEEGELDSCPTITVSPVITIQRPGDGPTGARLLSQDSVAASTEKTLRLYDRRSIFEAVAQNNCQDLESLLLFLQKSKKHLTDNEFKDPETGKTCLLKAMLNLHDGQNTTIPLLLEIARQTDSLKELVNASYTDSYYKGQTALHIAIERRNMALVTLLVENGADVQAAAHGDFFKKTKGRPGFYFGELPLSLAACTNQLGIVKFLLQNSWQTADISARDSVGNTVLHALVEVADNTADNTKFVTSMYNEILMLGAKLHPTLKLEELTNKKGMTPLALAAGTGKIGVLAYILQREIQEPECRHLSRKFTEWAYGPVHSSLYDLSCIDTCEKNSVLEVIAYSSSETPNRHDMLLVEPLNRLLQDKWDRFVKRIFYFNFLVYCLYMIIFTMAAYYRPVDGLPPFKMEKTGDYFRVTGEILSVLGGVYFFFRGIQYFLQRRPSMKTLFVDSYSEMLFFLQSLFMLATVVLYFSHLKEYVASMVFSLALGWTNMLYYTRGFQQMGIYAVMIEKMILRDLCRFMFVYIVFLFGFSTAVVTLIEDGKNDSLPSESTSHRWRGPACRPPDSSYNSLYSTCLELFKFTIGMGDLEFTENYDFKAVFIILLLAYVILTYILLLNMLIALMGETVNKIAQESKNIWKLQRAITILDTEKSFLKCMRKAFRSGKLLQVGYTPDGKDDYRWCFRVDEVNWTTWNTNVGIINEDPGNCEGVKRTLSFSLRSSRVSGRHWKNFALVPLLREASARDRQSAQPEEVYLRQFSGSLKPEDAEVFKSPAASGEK

Regarding `O=C(Nc1ccc(OC(F)(F)F)c(Cl)c1)N1CC=C(c2ncc(C[C@@H](O)CO)cc2Cl)CC1`, the half-inhibitory concentration (IC50) under setting [1] is 17 nM.
On the same count and under the same terms, the result for `O=C(Nc1ccc(OC(F)(F)F)cn1)N1CC=C(c2ncc(C(F)(F)[C@@H](O)CO)cc2Cl)CC1` reads 46 nM; that for `CO[C@@H]1CN(c2ncc(C[C@@H](O)CO)cc2Cl)CCN1C(=O)Nc1nc2ccc(F)cc2s1`, 1 nM.
The same measure, in the same setting: the result for `O=C(Nc1ccc(C(F)(F)F)cn1)N1CCC(F)(c2ncc([C@H](O)[C@H](O)CO)cc2Cl)CC1` reads 143 nM; that for `O=C(Nc1nc2ccc(C(F)(F)F)cc2s1)N1CCC(F)(c2ncc([C@H](O)[C@H](O)CO)cc2Cl)CC1`, 171 nM.
Same read-out and setting: to `O=C(Nc1nc2ccc(C(F)(F)F)cc2s1)N1CCC(F)(c2ncc(C[C@H](O)CO)cc2Cl)CC1` belongs 614 nM; to `O=C(Nc1ccc(C(F)(F)F)cn1)N1CC=C(c2ncc(CC(O)CO)cc2Cl)CC1` (stereo not shown), 38 nM.
As for `O=C(Nc1ccc(C(F)(F)F)cc1)N1CC=C(c2ncc(CC(O)CO)cc2Cl)CC1` (stereo not shown), the IC50 under setting [1] turned out to be 12 nM.
`O=C(Nc1ccc(C(F)(F)F)c(Cl)c1)N1CC=C(c2ncc(CC(O)CO)cc2Cl)CC1` (stereo not shown): under setting [1], the concentration for half-maximal inhibition (IC50) was found to be 10 nM.
Still for that read-out and setting: the result for `O=C(Nc1nc2ccc(F)cc2s1)N1CC=C(c2ncc(CC(O)CO)cc2Cl)CC1` (stereo not shown) reads 5 nM.
As for `O=C(Nc1nc2ccc(F)cc2s1)N1CC=C(c2ncc(C[C@H](O)CO)cc2Cl)CC1` [AAH], the IC50 under setting [2] is no more than 50 nM.
Turning to `O=C(Nc1ccc(C(F)(F)F)cn1)N1CC=C(c2ncc(C[C@@H](O)CO)cc2Cl)CC1` [AAJ, (R)-4-(3-Chloro-5-(2,3-dihydroxypropyl)pyridin-2-yl)-N-(5-(trifluoromethyl)pyridin-2-yl)-5,6-dihydropyridine-1(2H)-carboxamide], the IC50 under setting [2] was no more than 50 nM.
Same read-out and setting: the result for `O=C(Nc1nc2ccc(F)cc2s1)N1CC=C(c2ncc(C[C@@H](O)CO)cc2Cl)CC1` [AAL, (R)-4-(3-Chloro-5-(2,3-dihydroxypropyl)pyridin-2-yl)-N-(6-fluorobenzo[d]thiazol-2-yl)-5,6-dihydropyridine-1(2H)-carboxamide] reads no more than 50 nM.
Same read-out and setting: to `O=C(Nc1ccc(C(F)(F)F)c(Cl)c1)N1CC=C(c2ncc(C[C@@H](O)CO)cc2F)CC1` [AAY, (R)-N-(3-chloro-4-(trifluoromethyl)phenyl)-5-(2,3-dihydroxypropyl)-3-fluoro-5′,6′-dihydro-[2,4′-bipyridine]-1′(2′H)-carboxamide] belongs no more than 50 nM.
Same read-out and setting: to `O=C(Nc1ccc(C(F)(F)F)c(Cl)c1)N1CC=C(c2ncc(C[C@H](O)CO)cc2F)CC1` [AAZ, (S)-N-(3-chloro-4-(trifluoromethyl)phenyl)-5-(2,3-dihydroxy-propyl)-3-fluoro-5′,6′-dihydro-[2,4′-bipyridine]-1′(2′H)-carboxamide] belongs no more than 50 nM; to `O=C(Nc1ccc(C(F)(F)F)c(Cl)c1)N1CCC(F)(c2ncc([C@H](O)[C@@H](O)CO)cc2Cl)CC1` [ABG, N-(3-Chloro-4-(trifluoromethyl)phenyl)-4-(3-chloro-5-((1S,2S)-1,2,3-trihydroxypropyl)pyridin-2-yl)-4-fluoropiperidine-1-carboxamide], no more than 50 nM.
For `Cc1cc([C@H](O)[C@@H](O)CO)cnc1C1(F)CCN(C(=O)Nc2ccc(C(F)(F)F)c(Cl)c2)CC1` [ABH, N-(3-Chloro-4-(trifluoromethyl)phenyl)-4-fluoro-4-(3-methyl-5-((1S,2S)-1,2,3-trihydroxypropyl)pyridin-2-yl)piperidine-1-carboxamide], the IC50 under setting [2] was no more than 50 nM.
On the same count and under the same terms, the result for `Cc1cc(NC(=O)N2CC=C(c3ncc(C[C@H](O)CO)cc3Cl)CC2)ccc1C(F)(F)F` [ACG, (S)-4-(3-Chloro-5-(2,3-dihydroxypropyl)pyridin-2-yl)-N-(3-methyl-4-(trifluoromethyl)phenyl)-5,6-dihydropyridine-1(2H)-carboxamide] reads no more than 50 nM; that for `Cc1cc(NC(=O)N2CCC(F)(c3ncc(C[C@H](O)CO)cc3F)CC2)ccc1OC(F)(F)F` [ACR, (S)-4-(5-(2,3-dihydroxypropyl)-3-fluoropyridin-2-yl)-4-fluoro-N-(3-methyl-4-(trifluoromethoxy)phenyl)piperidine-1-carboxamide], no more than 50 nM.

Usually IC50 stands for the concentration that inhibits the measured activity by half.
